Test results taken from patent US20040175773A1, “Screening method based on siah-numb interaction” (priority 2000, published 2004).
Where a SMILES comes first, the peptide text is derived from it. The star is where a group is joined. Cbz = O=C(OCc1ccccc1)*

Key:
[1] = tested on: Notch1 nuclear translocation in U937 cells; conditions: 10 mM EDTA in PBS at 37° C. for 30 min; labelled 30 min (T=30) after removing the EDTA
Description: A. Stable U937 transfectants which were expressing either the control vector (panels 1 to 3) or Siah-1 (panels 4 to 7) were analysed using a confocal microscope for the endogenous immunofluorescence of Notch1. The cells were labelled with an antibody which recognized the cytoplasmic portion of human Notch1, followed by an FITC-conjugated secondary antibody. The Notch immunofluorescence analysis is related either to low magnification (panels 1 and 4) or to high magnification (panels 2, 3, 5, 6 and 7). […] The labelling with propidium iodide was included in order to better visualize the nuclear labelling of Notch1 (panels 3, 6 and 7). […] The bar represents a length of 5 μm.
Cells were incubated in 10 mM EDTA containing PBS at 37° C. for 30 min, and then washed and labelled with anti-Notch1 (intracellular) antibodies either immediately (T=0) or 30 min (T=30) after removing the EDTA. The cells were counterlabelled with propidium iodide in order to visualize the nucleus.

[2] = tested on: quantity of Numb protein in 293T cells; experiment: Western blot of Numb protein in transfected 293T cells with or without proteasome inhibitor; assay type: cell-based, human; conditions: 293T cells cotransfected with Numb, Siah-1 +/- Mdm2; 50 μM MG132 for 6 hours; anti-Numb Western blot, FIG. 2B lanes 6, 7 and 8
Description: FIG. 2: Analysis of the effect of the in vivo interaction between Siah and Numb on the levels at which the proteins are expressed. FIG. 2.A. 293T cells were cotransfected with an empty expression vector (column 1) or expressing Numb (column 2), Siah-1 (column 3), Numb and Siah-1 (column 4), Numb and Mdm2 (column 5), and Numb, Siah-1 and Mdm2 (column 6). 48 hours after transfection, a Western blot analysis was carried out using an anti-Numb antibody. A control was also performed using an anti-GFP (green fluorescent protein) antibody as a loading standard on the gel. FIG. 2.B. The Western blot was analysed as previously described in the absence or presence of an inhibitor of the ubiquitin proteasome (MG 132). Without MG 132, the quantity of Numb protein decreases in the presence of Siah-1, with or without Mdm2 (lanes 2, 3 and 4). […]
The cell lysates were separated by SDS-PAGE gel electrophoresis and transferred to a nitrocellulose membrane (Biorad), with this being followed by a Western blot analysis using the Numb polyclonal antibody (Weizmann Institute, Ref. 3465, or reference N80220 from Transduction Laboratories) and the anti-GFP monoclonal antibody (Boehringer, Ref. 1814460) in order to verify standardization of the quantities which were loaded onto the gel. […]

| SMILES | nuclear translocation of Notch1 [1] | quantity of Numb protein in the presence of Siah-1, with or without Mdm2 [2] |
| --- | --- | --- |
| O=C(O)CN(CCN(CC(=O)O)CC(=O)O)CC(=O)O [EDTA] | positive Notch1 labelling in the nucleus | – |
| CC(C)C[C@@H](C=O)NC(=O)[C@H](CC(C)C)NC(=O)[C@H](CC(C)C)NC(=O)OCc1ccccc1 [MG 132] (Cbz-Leu-Leu-Leu-aldehyde) | – | remains constant |
